Holding throughout (assay type): cell-based
Assay [1] deals with Esherichia coli ATCC 25922. The assay can be described thus: MIC, two-fold dilution method, Esherichia coli ATCC 25922. The following applies: Muller Hinton Broth, 10^6 CFU per ml, 37° C., 18 to 20 hours; for MIC: read-out: Antibacterial Activity (MIC). Summed up:
(§1)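 Two-fold serial dilutions of compound were prepared in Mueller Hinton Broth and inoculated with the standard strain at 10^6 CFU per ml. Cultures were incubated at 37° C. for 18 to 20 hours, and the MIC was taken as the minimal inhibitory concentration.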

Assay [2] relates to Bacillus subtilis ATCC 6633. The assay can be described thus: MIC, two-fold dilution method, Bacillus subtilis ATCC 6633. The following applies: 10^6 CFU per ml, 37° C., 18 to 20 hours; for MIC: ATCC6633, Muller Hinton Broth, read-out: Antibacterial Activity (MIC); for Antibacterial Activity (MIC): Muller Hinton Broth. A digest of the protocol: as §1
Assay [3] has as its system Streptococcus faecalis ATCC 10541. In words: MIC, two-fold dilution method, Streptococcus faecalis ATCC 10541. To be noted: 10^6 CFU per ml, 37° C., 18 to 20 hours; for MIC: Enterococcus faecalis, ATCC10541, Muller Hinton Broth, read-out: Antibacterial Activity (MIC); for Antibacterial Activity (MIC): Muller Hinton Broth. Summed up: as §1
The subject of assay [4] is Staphylococcus epidermidis ATCC 12228. In words: MIC, two-fold dilution method, Staphylococcus epidermidis ATCC 12228. The following applies: 10^6 CFU per ml, 37° C., 18 to 20 hours; for MIC: ATCC12228, Muller Hinton Broth, read-out: Antibacterial Activity (MIC); for Antibacterial Activity (MIC): Muller Hinton Broth. Summed up: as §1
The subject of assay [5] is Pseudomonas aeurginosa NCTC 10490. The assay can be described thus: MIC, two-fold dilution method, Pseudomonas aeurginosa NCTC 10490. The following applies: 10^6 CFU per ml, 37° C., 18 to 20 hours; for MIC: NCTC10490, Muller Hinton Broth, read-out: Antibacterial Activity (MIC); for Antibacterial Activity (MIC): Muller Hinton Broth. A digest of the protocol:
as §1

Assay [6] concerns Klebsiella pneumoniae ATCC 10031. In words: MIC, two-fold dilution method, Klebsiella pneumoniae ATCC 10031. The following applies: 10^6 CFU per ml, 37° C., 18 to 20 hours; for MIC: ATCC10031, Muller Hinton Broth, read-out: Antibacterial Activity (MIC); for Antibacterial Activity (MIC): Muller Hinton Broth. A digest of the protocol:
as §1

Assay [7] has as its system Staphylococcus aureus ATCC 65389. The assay can be described thus: MIC, two-fold dilution method, Staphylococcus aureus ATCC 65389. The following applies: 10^6 CFU per ml, 37° C., 18 to 20 hours; for MIC: ATCC65389, Muller Hinton Broth, read-out: Antibacterial Activity (MIC); for Antibacterial Activity (MIC): Muller Hinton Broth. A digest of the protocol: as §1

In brackets after ≈: the same amount, converted by molar mass.

One may read the MIC as the lowest concentration found to suppress growth. Take `CCN1CCN(c2cc3c(cc2F)c(SCC2=C(C(=O)[O-])N4C(=O)C(NC(=O)/C(=N\OC(C)(C)C(=O)O)c5csc(N)n5)C4SC2)cc[n+]3C2CC2)CC1` (stereo not shown) [Compound I-59, 7-[(Z)-2-(2-aminothiazol-4-yl)-2-(2-carboxyprop-2-oxyimino)acetamido]-3-[1-cyclopropyl-6-fluoro-7-(1-ethylpiperazinyl)quinolinium-4-yl]thiomethyl-3-cephem-4-carboxylate]: the MIC was found to be 0.78 µg/mL (≈ 0.976 µM) in assay [1]; 0.39 µg/mL (≈ 0.488 µM) in assay [2]; 0.78 µg/mL (≈ 0.976 µM) in assay [3]; 1.56 µg/mL (≈ 1.95 µM) in assay [4]; 0.78 µg/mL (≈ 0.976 µM) in assay [5]; 0.39 µg/mL (≈ 0.488 µM) in assay [6]. In addition, the MIC in assay [7] came to 0.78 µg/mL (≈ 0.976 µM).
`C=CCO/N=C(\C(=O)NC1C(=O)N2C(C(=O)[O-])=C(CSc3cc[n+](C)c4cc(N5CCNCC5C)c(F)cc34)CS[C@H]12)c1csc(N)n1` (stereo partly shown) [Compound I-24, 7-[(Z)-2-(2-aminothiazol-4-yl)-2-(allyloxyimino)acetamido]-3-[1-methyl-6-fluoro-7-(2-methylpiperazinyl)quinolinium-4-yl]thiomethyl-3-cephem-4-carboxylate]: the “Antibacterial Activity (MIC)” value in assay [1] is 1.56 µg/mL; in assay [2] it was 0.2 µg/mL; in assay [3] it was 0.1 µg/mL; in assay [4], 0.1 µg/mL; in assay [5], 0.78 µg/mL; in assay [6], 0.2 µg/mL. The “Antibacterial Activity (MIC)” value in assay [7] was 0.1 µg/mL.
`CCN1CCN(c2cc3c(cc2F)c(SCC2=C(C(=O)[O-])N4C(=O)C(NC(=O)/C(=N\OC(C)(C)C(=O)O)c5csc(N)n5)C4SC2)cc[n+]3C)CC1` (stereo not shown) [Compound I-55, 7-[(Z)-2-(2-aminothiazol-4-yl)-2-(2-carboxyprop-2-oxyimino)acetamido]-3-[1-methyl-6-fluoro-7-(1-ethylpiperazinyl)quinolinium-4-yl]thiomethyl-3-cephem4-carboxylate]: the MIC in assay [1] came to 0.78 µg/mL (≈ 1.01 µM); in assay [2], 0.2 µg/mL (≈ 0.259 µM); in assay [3], 0.2 µg/mL (≈ 0.259 µM); in assay [4] it was 0.78 µg/mL (≈ 1.01 µM); in assay [5], 0.39 µg/mL (≈ 0.505 µM); in assay [6], 0.39 µg/mL (≈ 0.505 µM). The MIC in assay [7] was 1.56 µg/mL (≈ 2.02 µM).
For `C#CCO/N=C(\C(=O)NC1C(=O)N2C(C(=O)[O-])=C(CSc3cc[n+](CC)c4cc(N5CCN(C)CC5)c(F)cc34)CSC12)c1csc(N)n1` (stereo not shown) [Compound I-46, 7-[(Z)-2-(2-aminothiazol-4-yl)-2-(propargyloxyimino)acetamido]-3-[1-ethyl-6-fluoro-7-(N-methylpiperazinyl)quinolinium-4-yl]thiomethyl-3-cephem-4-carboxylate], the MIC in assay [1] came to 12.5 µg/mL (≈ 17.2 µM); in assay [2], 0.78 µg/mL (≈ 1.08 µM); in assay [3], 0.2 µg/mL (≈ 0.276 µM); in assay [4], 0.39 µg/mL (≈ 0.538 µM); in assay [5] it was 6.25 µg/mL (≈ 8.62 µM); in assay [6] it was 6.25 µg/mL (≈ 8.62 µM). Moreover, the MIC in assay [7] amounted to 0.78 µg/mL (≈ 1.08 µM).
As for `C=CC[n+]1ccc(SCC2=C(C(=O)[O-])N3C(=O)C(NC(=O)/C(=N\OC)c4csc(N)n4)C3SC2)c2cc(F)c(N3CCN(CC)CC3)cc21` (stereo not shown) [Compound I-15, 7-[(Z)-2(2-aminothiazol-4-yl)-2-(methoxyimino)acetamido]-3-[1-allyl-6-fluoro-7-(1-ethylpiperazinyl)quinolinium-4-yl]thiomethyl-3-cephem-4-carboxylate], the MIC came to 1.56 µg/mL (≈ 2.15 µM) in assay [1]; 0.1 µg/mL (≈ 0.138 µM) in assay [2]; 0.39 µg/mL (≈ 0.537 µM) in assay [3]; 0.78 µg/mL (≈ 1.07 µM) in assay [4]; 1.56 µg/mL (≈ 2.15 µM) in assay [5]; 0.39 µg/mL (≈ 0.537 µM) in assay [6]. In addition, the MIC in assay [7] turned out to be 0.2 µg/mL (≈ 0.275 µM).
For the molecule `C=CCO/N=C(\C(=O)NC1C(=O)N2C(C(=O)[O-])=C(CSc3cc[n+](CC=C)c4cc(N5CCN(C)CC5)c(F)cc34)CSC12)c1csc(N)n1` (stereo not shown) [Compound I-34, 7-[(Z)-2-(2-aminothiazol-4-yl)-2-(allyloxyimino)acetamido]-3-[1-allyl-6-fluoro-7-(N-methylpiperazinyl)quinolinium-4-yl]thiomethyl-3-cephem-4-carboxylate], the MIC in assay [1] was 3.13 µg/mL (≈ 4.24 µM); in assay [2] it was 0.78 µg/mL (≈ 1.06 µM); in assay [3], 0.78 µg/mL (≈ 1.06 µM); in assay [4], 1.56 µg/mL (≈ 2.11 µM); in assay [5], 6.25 µg/mL (≈ 8.46 µM); in assay [6], 1.56 µg/mL (≈ 2.11 µM). Also, in assay [7], the MIC was 1.56 µg/mL (≈ 2.11 µM).
For `C=CC[n+]1ccc(SCC2=C(C(=O)[O-])N3C(=O)C(NC(=O)/C(=N\OC)c4csc(N)n4)C3SC2)c2cc(F)c(N3CCNCC3C)cc21` (stereo not shown) [Compound I-16, 7-[(Z)-2-(2-aminothiazol-4-yl)-2-(methoxyimino)acetamido]-3-[1-allyl-6-fluoro-7-(2-methylpiperazinyl)quinolinium-4-yl]thiomethyl 3-cephem-4-carboxylate], the “Antibacterial Activity (MIC)” value in assay [1] was 1.56 µg/mL; in assay [2] it was 0.2 µg/mL; in assay [3] it was 0.78 µg/mL; in assay [4] it was 0.39 µg/mL; in assay [5] it was 1.56 µg/mL; in assay [6], 0.39 µg/mL. For the same molecule, the “Antibacterial Activity (MIC)” value in assay [7] worked out at 0.2 µg/mL.
`CC[n+]1ccc(SCC2=C(C(=O)[O-])N3C(=O)C(NC(=O)/C(=N\OC)c4csc(N)n4)C3SC2)c2cc(F)c(N3CCNCC3)cc21` (stereo not shown) [Compound I-9, 7-[(Z)-2-(2-aminothiazol-4-yl)-2-(methoxyimino)acetamido]-3-(1-ethyl-6-fluoro-7-piperazinylquinolinum-4-yl)thiomethyl-3-cephem-4-carboxylate]: the MIC in assay [1] was 1.56 µg/mL (≈ 2.27 µM); in assay [2] it was 0.1 µg/mL (≈ 0.146 µM); in assay [3] it was 0.1 µg/mL (≈ 0.146 µM); in assay [4], 0.2 µg/mL (≈ 0.291 µM); in assay [5] it was 3.13 µg/mL (≈ 4.56 µM); in assay [6] it was 0.78 µg/mL (≈ 1.14 µM). For the same molecule, in assay [7], the MIC worked out at 0.2 µg/mL (≈ 0.291 µM).
Regarding `C#CCO/N=C(\C(=O)NC1C(=O)N2C(C(=O)[O-])=C(CSc3cc[n+](CC=C)c4cc(N5CCN(C)CC5)c(F)cc34)CSC12)c1csc(N)n1` (stereo not shown) [Compound I-50, 7-[(Z)-2-(2-aminothiazol-4-yl)-2-(propargyloxyimino)acetamido]-3-[1-allyl-6-fluoro-7-(N-methylpiperazinyl)quinolinium-4-yl]thiomethyl-3-cephem-4-carboxylate], the MIC was 3.13 µg/mL (≈ 4.25 µM) in assay [1]; 0.78 µg/mL (≈ 1.06 µM) in assay [2]; 1.56 µg/mL (≈ 2.12 µM) in assay [3]; 3.13 µg/mL (≈ 4.25 µM) in assay [4]; 3.13 µg/mL (≈ 4.25 µM) in assay [5]; 3.13 µg/mL (≈ 4.25 µM) in assay [6]. Moreover, the MIC in assay [7] was 3.13 µg/mL (≈ 4.25 µM).
Consider `C=CCO/N=C(\C(=O)NC1C(=O)N2C(C(=O)[O-])=C(CSc3cc[n+](C4CC4)c4cc(N5CCNCC5)c(F)cc34)CS[C@H]12)c1csc(N)n1` (stereo partly shown) [Compound I-25, 7-[(Z)-2-(2-aminothiazol-4-yl)-2-(allyloxyimino)acetamido]-3-(1-cyclopropyl-6-fluoro-7-piperazinylquinolinium-4-yl)thiomethyl-3-cephem-4-carboxylate], for which the MIC is 6.25 µg/mL (≈ 8.62 µM) in assay [1]; 0.2 µg/mL (≈ 0.276 µM) in assay [2]; 0.2 µg/mL (≈ 0.276 µM) in assay [3]; 0.78 µg/mL (≈ 1.08 µM) in assay [4]; 0.39 µg/mL (≈ 0.538 µM) in assay [5]; 0.39 µg/mL (≈ 0.538 µM) in assay [6]. The MIC in assay [7] came to 0.78 µg/mL (≈ 1.08 µM).
